Our source for the Ki values is article PMC3620930 (Molecular oral microbiology, 2012).

Molecules are shown by their SMILES. pKi: −log10 of the molar value. A value given as a limit tells only on which side of the number the result lay.

Assay in all cases: inhibition of amidolytic activity
Holding throughout (type): biochemical

Assay [1] deals with HRgpA (Porphyromonas gingivalis, UniProt P28784).
The target of assay [2] is RgpB (Porphyromonas gingivalis, UniProt P95493).
In assay [3] the target is Lys-gingipain (Porphyromonas gingivalis, UniProt P72197).

Take `N=C(N)c1ccccc1` [benzamidine]: the pKi is 3.27 in assay [1], 3.56 in assay [2] and under 3.00 in assay [3].

Turning to `N=C(N)c1ccc(OCCCCCOc2ccc(C(=N)N)cc2)cc1` [pentamidine], the negative-log Ki (pKi) in assay [1] was 3.97; in assay [2], 4.39; in assay [3] it was under 3.00.

As to `N=C(N)c1ccc(CC2CCCC(Cc3ccc(C(=N)N)cc3)C2=O)cc1` (stereo not drawn) [2,6-bis-(4-amidinobenzyl)-cyclohexanone], the pKi was 5.54 in assay [1], 6.29 in assay [2] and under 3.00 in assay [3].
